Data as given in patent US8394952B2 (Vertex Pharmaceuticals Incorporated, priority 2006, dated 2013).

Biological target: Plk1 (Homo sapiens, UniProt P53350)
Assay: biochemical

Chain of Plk1 (P53350 20-338): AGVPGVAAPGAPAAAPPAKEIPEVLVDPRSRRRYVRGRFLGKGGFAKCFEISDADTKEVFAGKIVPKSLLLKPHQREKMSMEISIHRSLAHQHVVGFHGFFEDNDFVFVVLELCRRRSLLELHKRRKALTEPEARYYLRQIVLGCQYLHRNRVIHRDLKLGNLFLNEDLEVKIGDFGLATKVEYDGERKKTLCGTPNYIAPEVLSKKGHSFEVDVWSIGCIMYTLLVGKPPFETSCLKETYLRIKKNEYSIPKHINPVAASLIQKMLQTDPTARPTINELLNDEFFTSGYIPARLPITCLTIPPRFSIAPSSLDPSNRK

SMILES | Ki
CN1C(=O)C(C)(C)CN(C2CCCC2)c2nc(Nc3cccc(NC(=O)C4CCC4)c3)ncc21 [Compound I-151, N-(3-(9-cyclopentyl-6,7,8,9-tetrahydro-5,7,7-trimethyl-6-oxo-5H-pyrimido[4,5-b][1,4]diazepin-2-ylamino)phenyl)cyclobutanecarboxamide] | 10 to 100 nM
COc1cc(C2=NCC(C)(C)N2)ccc1Nc1ncc2c(n1)N(C1CCCC1)CC(C)(C)C(=O)N2C [Compound I-257, 9-cyclopentyl-2-(4-(5,5-dimethyl-4,5-dihydro-1H-imidazol-2-yl)-2-methoxyphenylamino)-5,7,7-trimethyl-8,9-dihydro-5H-pyrimido[4,5-b][1,4]diazepin-6(7H)-one] | < 10 nM
COc1cc(C(=O)NC2CCN(C(C)C)CC2)ccc1Nc1ncc2c(n1)N(C1CCCC1)CC(C)(C)C(=O)N2C [Compound I-67] | < 10 nM
CN1CCC(C(=O)Nc2cccc(Nc3ncc4c(n3)N(C3CCCC3)CC(C)(C)C(=O)N4C)c2)CC1 [Compound I-157, N-(3-(9-cyclopentyl-6,7,8,9-tetrahydro-5,7,7-trimethyl-6-oxo-5H-pyrimido[4,5-b][1,4]diazepin-2-ylamino)phenyl)-1-methylpiperidine-4-carboxamide] | < 10 nM
COc1cc(C(=O)O)ccc1Nc1ncc2c(n1)N(C1CCCC1)CC(C)C(=O)N2C (centres unmarked) [Compound I-10, 4-(9-cyclopentyl-6,7,8,9-tetrahydro-5,7-dimethyl-6-oxo-5H-pyrimido[4,5-b][1,4]diazepin-2-ylamino)-3-methoxybenzoic acid] | 10 to 100 nM
COc1cc(C(=O)NCc2cccnc2)ccc1Nc1ncc2c(n1)N(C1CCCC1)CC(C)(C)C(=O)N2C [Compound I-202, 4-(9-cyclopentyl-5,7,7-trimethyl-6-oxo-6,7,8,9-tetrahydro-5H-pyrimido[4,5-b][1,4]diazepin-2-ylamino)-3-methoxy-N-(pyridin-3-ylmethyl)benzamide] | < 10 nM
CC(C)Oc1cc(C(=O)NC2CCN(C)CC2)ccc1Nc1ncc2c(n1)N(C1CCCC1)CC(C)(C)C(=O)N2C [Compound I-51, 4-(9-cyclopentyl-6,7,8,9-tetrahydro-5,7,7-trimethyl-6-oxo-5H-pyrimido[4,5-b][1,4]diazepin-2-ylamino)-3-isopropoxy-N-(1-methylpiperidin-4-yl)benzamide] | < 10 nM
COc1cc(C(=O)NC[C@@H]2CCCC[C@@H]2O)ccc1Nc1ncc2c(n1)N(C1CCCC1)CC1(CC1)C(=O)N2C [Compound I-252, 4-(9′-cyclopentyl-5′-methyl-6′-oxo-5′,6′,8′,9′-tetrahydrospiro[cyclopropane-1,7′-pyrimido[4,5-b][1,4]diazepine]-2′-ylamino)-N-(((1S,2S)-2-hydroxycyclohexyl)methyl)-3-methoxybenzamide] | < 10 nM
CN1C(=O)C(C)(C)CN(C2CCCC2)c2nc(Nc3cccc(NC(=O)c4ccccc4)c3)ncc21 [Compound I-154, N-(3-(9-cyclopentyl-6,7,8,9-tetrahydro-5,7,7-trimethyl-6-oxo-5H-pyrimido[4,5-b][1,4]diazepin-2-ylamino)phenyl)benzamide] | 10 to 100 nM
COc1cc(C(=O)NCCCO)ccc1Nc1ncc2c(n1)N(C1CCCC1)CC1(CC1)C(=O)N2C [Compound I-262, 4-(9′-cyclopentyl-5′-methyl-6′-oxo-5′,6′,8′,9′-tetrahydrospiro[cyclopropane-1,7′-pyrimido[4,5-b][1,4]diazepine]-2′-ylamino)-N-(3-hydroxypropyl)-3-methoxybenzamide] | < 10 nM
COc1cc(C(=O)N2CCN(C(=O)OC(C)(C)C)CC2)ccc1Nc1ncc2c(n1)N(C1CCCC1)CCC(=O)N2C [Compound I-7, 4-(9-cyclopentyl-6,7,8,9-tetrahydro-5-methyl-6-oxo-5H-pyrimido[4,5-b][1,4]diazepin-2-ylamino)-3-methoxyphenyl-(4-tert-butoxycarbonypiperazin-1-yl)methanone] | 10 to 100 nM
